System: warts
Experiment: In vivo treatment of warts
Parameters: species or system human
Details: topical application to warts
Experimental: A composition including an imidazoquinoline compound; and a retinoid agent was tested in vivo. Imiquimod (5% (wt/wt)) and tazarotene (0.1% (wt/wt) were combined in a 1:1 ratio. The resulting composition was topically applied to individual warts in approximately 30 patients. The patients had various types of warts (thick and thin) in varying locations including palms, soles, hands, legs, feet, trunk, and extremities (including periungual). The composition could be used occluded or non-occluded, at the patient's option.

With `CC(C)Cn1cnc2c(N)nc3ccccc3c21` [imiquimod, 1-(2-methylpropyl)-1H-imidpzo[4,5-c]quinolin-4-amine] the “treatment result on warts (in words)” value was “not as efficacious”.
For `CCOC(=O)c1ccc(C#Cc2ccc3c(c2)C(C)(C)CCS3)nc1` [tazarotene], the “treatment result on warts (in words)” value was “not as efficacious”.

Reference: patent publication US10350202B2, “Composition and method for treating skin conditions” (442 Ventures, LLC, priority 2010, dated 2019)
